Source: article PMC3578785, “Improved BM212 MmpL3 Inhibitor Analogue Shows Efficacy in Acute Murine Model of Tuberculosis Infection” (PLoS ONE, 2013)

Key:
H37Rv = system: H37Rv; design: species or system mice; conditions: mouse, in vivo, po
[1] = Oral pharmacokinetic studies in mice, peripheral total blood; conditions: female, C57BL/6, mouse, whole blood
[2] = Vero cytotoxicity assay (MTT); conditions: African green monkey, Vero cells
[3] = at 1 µM
[4] = biological target: human serum albumin (HSA) (Homo sapiens, UniProt P02768); format: in vitro ADME
Sequence of human serum albumin (HSA) (P02768 25-609): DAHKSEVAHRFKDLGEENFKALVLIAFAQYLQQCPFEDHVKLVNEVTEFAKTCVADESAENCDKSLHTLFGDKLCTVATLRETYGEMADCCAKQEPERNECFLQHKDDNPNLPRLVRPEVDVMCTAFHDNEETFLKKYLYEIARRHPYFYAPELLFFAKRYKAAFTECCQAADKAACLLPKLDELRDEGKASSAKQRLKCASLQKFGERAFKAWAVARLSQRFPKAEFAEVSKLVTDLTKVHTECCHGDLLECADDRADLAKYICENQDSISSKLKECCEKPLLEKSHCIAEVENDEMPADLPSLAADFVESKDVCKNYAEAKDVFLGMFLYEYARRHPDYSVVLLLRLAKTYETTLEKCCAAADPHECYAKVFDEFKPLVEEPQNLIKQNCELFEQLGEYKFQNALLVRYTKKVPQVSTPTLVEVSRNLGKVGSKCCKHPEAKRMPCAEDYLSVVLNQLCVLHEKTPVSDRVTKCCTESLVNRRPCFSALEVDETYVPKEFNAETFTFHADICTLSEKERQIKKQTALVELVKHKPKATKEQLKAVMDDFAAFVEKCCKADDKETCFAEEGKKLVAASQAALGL
Experimental: Standard physical chemical property determination methods were used. Please see the Supporting Information for details.
Protocol S4. Determination of compounds binding to human serum albumin (HSA).
The determination of compounds binding to human serum albumin (HSA) was carried out by retention time measurements using immobilized HSA HPLC columns obtained from Chiral Technologies Ltd, France. The column dimensions were 50x3 mm. The mobile phase was 50 mM ammonium acetate buffer pH 7.4 and HPLC grade 2-propanol. HPLC Method: flow rate 1.8 ml/min applying 2.5 min 2-propanol gradient up to 30%. From 2.5 min to 4.5 min the 2-propanol concentration in the mobile phase was kept at 30%. From 4.5 min to 4.6 min, the 2-propanol concentration was decreased to 0% and kept like that until the end of the gradient run which was 6 min. A calibration set of compounds was first analyzed for which plasma protein binding data were available: Warfarin, Nizatidine, Bromazepam, Carbamazepine, Budesonide, Nicardipine, Indomethacine, Piroxicam, Naproxen. The calculation of the HSA binding data expressed as %HSA was carried out as described previously.

in vitro [5] = format: in vitro ADME, human
Experimental: (§1) Protocol S6. Microsomal fraction stability experimental procedure.
(§2) Pooled mouse and human liver microsomes are purchased from Xenotech. Microsomes (final protein concentration 0.5 mg/mL, MgCl2 (final concentration = 5 mM) and test compound (final substrate concentration = 0.5 µM; final DMSO concentration = 0.5%) in 0.1M phosphate buffer pH 7.4 were pre-incubated at 37°C prior to the addition of NADPH (final concentration = 1 mM) to initiate the reaction. The final incubation volume was 600 µL. A control incubation was included for each compound tested where 0.1 M phosphate buffer pH 7.4 is added instead of NADPH (minus NADPH). One control compound was included with each species. All incubations were performed singularly for each test compound. Each compound was incubated for 30 minutes and samples (90 µL) of incubate were taken at 0, 5, 15, 20 and 30 min. The control (minus NADPH) was sampled at 30 min only. The reactions were stopped by the addition of sample to 200 µL Acetonitrile:Methanol 3:1 containing internal standard. The terminated samples were centrifuged at 2.500 rpm for 20 min at 4°C to precipitate the protein.
(§3) Quantitative Analysis: following protein precipitation, the samples were analyzed using specific […]
(§4) Data Analysis: from a plot of ln peak area ratio (compound peak area/internal standard peak area) against time, the gradient of the line was determined. Subsequently, half-life and intrinsic clearance were calculated using the equations below:
(§5) Elimination rate constant (k) = (- gradient)
(§6) Half life (t1/2) (min) = […]
(§7) Intrinsic Clearance (CLint) (mL/min/g protein) = […] where V=Incubation volume mL/g microsomal protein.

in vitro [6] = format: in vitro ADME, mouse
Experimental: as §1, §2, §3, §4, §5, §6, §7

SMILES | ED99 (dose that reduces 2 logs bacterial burden in the lungs of mice; 95% confidence interval in parenthesis) (H37Rv) | AUC(0-inf) ([1]; 27.5 mg/kg) [µM·h] | AUC(0-inf) ([1]; 0.98 mg/kg) [µM·h] | CC50 at 72 h [2] [µM] | Tox50, cytotoxicity in HepG2 cells (HepG2 cells) [µM] | PPB (%) [3] [%] | CC50 (Vero cells) [µM] | HSA (%) binding [4] [%] | Cli human (in vitro [5]) [mL/min/g] | t1/2 in human microsomes (in vitro [5]; human microsomes) [min] | CHILogD pH 2 (pH 2) | CHILogD pH 7.4 (pH 7.4) | CHILogD pH 10.5 (pH 10.5) | Cli mouse (in vitro [6]) [mL/min/g] | t1/2 in mouse microsomes (in vitro [6]; mouse microsomes) [min]
COc1c(N2C[C@@H]3CCCN[C@@H]3C2)c(F)cc2c(=O)c(C(=O)O)cn(C3CC3)c12 [Moxifloxacin] | 28 (26–29) mg/kg | 9.4 | – | – | – | – | – | – | – | – | – | – | – | – | –
NNC(=O)c1ccncc1 [Isoniazid] | 0.95 (0.86–1.1 ) mg/kg | – | 5.5 | > 256 | – | – | – | – | – | – | – | – | – | – | –
COc1ccc(-c2cc(CN3CCOCC3)c(C)n2-c2ccc(C(C)C)cc2)cc1 [Compound 25] | – | – | – | – | 15.9 | >99.9 | 12.9 | 97.02 | 0.5 | >30 | 1.36 | 4.36 | 4.86 | 10.55 | <5
